From the NIST ThermoML archive (doi:10.1016/j.fluid.2007.08.006)
± gives the expanded uncertainty stated by the source.

Settings: 101.33 kPa, Liquid; for viscosity: Capillary tube (Ostwald / Ubbelohde) method; for mass density: Pycnometric method; for speed of sound: Sing-around technique in a fixed-path interferometer

| mass density (303.15 K) [kg/m3] | speed of sound (303.15 K) [m/s] | viscosity (308.15 K) [mPa·s] | mass density (308.15 K) [kg/m3] | speed of sound (308.15 K) [m/s] | viscosity (313.15 K) [mPa·s] | mass density (313.15 K) [kg/m3] | speed of sound (313.15 K) [m/s] | SMILES | viscosity (303.15 K) [mPa·s] |
| --- | --- | --- | --- | --- | --- | --- | --- | --- | --- |
| 927.2 ± 4.9 | 1404.6 ± 7.5 | 0.693 ± 0.018 | 919.7 ± 4.8 | 1400.8 ± 7.5 | 0.677 ± 0.018 | 916.4 ± 4.8 | 1420.8 ± 7.6 | CN(C)C=O [dimethylformamide] | 0.715 ± 0.018 |
| 772.4 ± 3.4 | 1135.4 ± 6.8 | 0.658 ± 0.017 | 771.6 ± 3.4 | 1133.2 ± 6.8 | 0.617 ± 0.016 | 771.2 ± 3.4 | 1130.8 ± 6.8 | CCO [ethanol] | – |

| SMILES | mass density (303.15 K) [kg/m3] | speed of sound (303.15 K) [m/s] | viscosity (308.15 K) [mPa·s] | mass density (308.15 K) [kg/m3] | speed of sound (308.15 K) [m/s] | viscosity (313.15 K) [mPa·s] | mass density (313.15 K) [kg/m3] | speed of sound (313.15 K) [m/s] | viscosity (303.15 K) [mPa·s] |
| --- | --- | --- | --- | --- | --- | --- | --- | --- | --- |
| CCC(C)=O [butanone] | 802.5 ± 3.7 | 1168.6 ± 6.9 | 0.334 ± 0.009 | 800.1 ± 3.6 | 1157.2 ± 6.9 | 0.315 ± 0.008 | 800.3 ± 3.7 | 1130.4 ± 6.8 | 0.352 ± 0.009 |
